This note sets out measurements from PubChem BioAssay AID434987 (Southern Research Specialized Biocontainment Screening …, 2010).

As a reminder, the IC50 is the concentration needed to halve the response being measured. One may read the IC90 as the concentration needed for an effect of 90%. Higher therefore signals weaker potency.

The assay relates to M. tuberculosis H37Rv growth inhibition with meropenem. As to the kind of experiment: dose response, H37Rv, with and without meropenem (AID 434987).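 Note: growth over 7 days at 37 °C before Alamar Blue read on day 9.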
Setting [1] is: M. tuberculosis H37Rv growth inhibition, measured here: IC50 without meropenem.
The mark [2] stands for this setting: M. tuberculosis H37Rv growth inhibition, measured here: IC90 without meropenem.
Where [3] appears, read: measured here: IC90 with meropenem.

The structures appear in SMILES notation. Calls of active or inactive are those of the source. The rule behind the calls is not given here.

For `Cc1ccc(Nc2nc(N)nc(CC#N)n2)cc1`, the IC50 was 61.3 µM (inactive). In addition, under setting [1], the IC50 was found to be 75.6 µM. Under setting [2], this compound returned a 90% effect concentration (IC90) greater than 100 µM. Also, under setting [3], the IC90 is 92.7 µM.
The corresponding values for `CCn1c(-c2ccc(-c3ccccc3)cc2)c[nH]c1=S` are 29.1 µM (inactive), 47.8 µM, greater than 100 µM and greater than 100 µM.
Regarding `COc1ccccc1NC(=O)c1cnc(Nc2ccccc2OC)c2ccccc12`, the IC50 is 37.2 µM. Moreover, the IC50 under setting [1] is greater than 100 µM. Under setting [2], this compound came in with an IC90 greater than 100 µM. For the same compound, under setting [3], the concentration for an effect of 90% (IC90) is greater than 100 µM.
On to `Cc1ccc(/C=C/C(=O)OCC(=O)NC(C)c2ccccc2)o1` (configuration not stated), for which the IC50 was > 100 µM (inactive). Also, the IC50 under setting [1] is greater than 100 µM. For the same compound, under setting [2], the IC90 is greater than 100 µM. Besides, under setting [3], the concentration for an effect of 90% (IC90) is greater than 100 µM.
On to `O=C(Nc1ccc([N+](=O)[O-])cc1)c1cc2ccccc2nc1Cl`, for which the IC50 is > 100 µM (inactive). Also, under setting [1], the IC50 is greater than 100 µM. Under setting [2], the IC90 is greater than 100 µM. The compound also displayed a 90% effect concentration (IC90) under setting [3] greater than 100 µM.
On to `O=C(c1cccc(C(=O)N2CCN(c3ccc(F)cc3)CC2)c1)N1CCN(c2ccc(F)cc2)CC1`, for which the IC50 is 93.2 µM (inactive). The same compound yielded an IC50 under setting [1] of 95.2 µM. This compound also yielded a 90% effect concentration (IC90) under setting [2] greater than 100 µM. Also, the IC90 under setting [3] is greater than 100 µM.
As for `O=C1S/C(=C\C=C\c2ccco2)C(=O)N1c1ccccc1`, the IC50 is 14.7 µM. This compound also had an IC50 under setting [1] of 43.5 µM. For the same compound, the 90% effect concentration (IC90) under setting [2] is greater than 100 µM. Under setting [3], this compound showed an IC90 of 77.6 µM.
For `Cn1c(SCC(=O)OC2CCCCC2)nnc1-c1ccc2c(c1)OCO2`, in that order: 7.93 µM, 30.5 µM, 70 µM and 34.9 µM.
For `O=C(Nc1cccc(S(=O)(=O)NCc2ccco2)c1)c1cc(-c2ccc(F)cc2)nc2ccccc12`, in that order: 97.4 µM (inactive), greater than 100 µM, greater than 100 µM and greater than 100 µM.
The corresponding values for `Cc1nn(C)c(C(=O)NC(=S)Nc2ccccc2Br)c1Cl` are > 100 µM (inactive), greater than 100 µM, greater than 100 µM and greater than 100 µM.
As for `CCOc1cc(N2CCOCC2)c(OCC)cc1NC(=O)c1cc(C)cc(C)c1`, the 50% inhibitory concentration (IC50) was 23.7 µM. Further, the concentration for half-maximal inhibition (IC50) under setting [1] is greater than 100 µM. The compound further returned an IC90 under setting [2] greater than 100 µM. For the same compound, under setting [3], the 90% effect concentration (IC90) is greater than 100 µM.
For `COc1cccc(/C=N/NC(=O)c2cnccn2)c1O`, the IC50 is 2.58 µM. Under setting [1], this compound registered a half-inhibitory concentration (IC50) of 44.8 µM. Also, the IC90 under setting [2] is greater than 100 µM. Moreover, the IC90 under setting [3] stood at 13.9 µM.
Regarding `CN(C(=O)Nc1ccc(Cl)cc1)n1cnc2ccccc2c1=O`, the IC50 was 44.9 µM (inactive). For the same compound, the half-inhibitory concentration (IC50) under setting [1] was 95.9 µM. Under setting [2], this compound came in with an IC90 greater than 100 µM. Under setting [3], this compound showed an IC90 of 48.6 µM.
For `CCCCC12CN3CC(C)(CN(C1)C3c1ccc([N+](=O)[O-])o1)C2=O` (configuration not stated), in that order: 4.12 µM, 27 µM, 98.7 µM and 23.5 µM.
For `Cc1cc(C)c(-c2c(O)c3ccccc3n(C)c2=O)c(C)c1`, in that order: 9.29 µM, 48.8 µM, greater than 100 µM and 42.2 µM.
For `COc1cccc(/C=N/NC(N)=S)c1OS(=O)(=O)c1ccccc1`, in that order: 19.2 µM, greater than 100 µM, greater than 100 µM and greater than 25 µM.
For the compound `COC(=O)c1c(NC(=O)C2c3ccccc3Oc3ccccc32)sc(C)c1C`, the IC50 was > 100 µM (inactive). Besides, the IC50 under setting [1] is greater than 100 µM. In addition, the IC90 under setting [2] was greater than 100 µM. Under setting [3], this compound came in with an IC90 greater than 100 µM.
On to `CCOc1ccc2c(c1)c(C(C)=O)c(C)n2-c1ccccc1`, for which the concentration for half-maximal inhibition (IC50) was less than 0.2 µM. The same compound registered an IC50 under setting [1] greater than 100 µM. In addition, the concentration for an effect of 90% (IC90) under setting [2] was greater than 100 µM. This compound also had an IC90 under setting [3] of 1.96 µM.
Take `COCCCn1c(=O)/c(=C\c2cccc(OC)c2OC)s/c1=C(/C#N)C(=O)Nc1ccc(C(=O)O)cc1`: the half-inhibitory concentration (IC50) was 5 µM. Further, the IC50 under setting [1] came out at 14.6 µM. The same compound had an IC90 under setting [2] of 31.4 µM. Under setting [3], this compound gave an IC90 of 24.6 µM.
For `Cc1ccc(Cn2c(C(C)Nc3nc(-c4ccc(Cl)cc4)cs3)nc3cc(C(=O)NCCCO)ccc32)cc1` (configuration not stated), in that order: 73.5 µM (inactive), 67.3 µM, 86.4 µM and greater than 100 µM.
For `COc1ccc2nc(SCc3cccc(C)c3)nc(C)c2c1`, in that order: > 100 µM (inactive), greater than 100 µM, greater than 100 µM and greater than 100 µM.
For `Cc1cc(C(=O)Nc2nnc(-c3ccccc3)s2)no1`, in that order: 45.1 µM (inactive), 48.4 µM, greater than 100 µM and greater than 100 µM.
Take `C=CCNC(=S)NC(=O)c1csc([N+](=O)[O-])c1`: the IC50 is 27.8 µM (inactive). Also, under setting [1], the concentration for half-maximal inhibition (IC50) is 49 µM. Besides, under setting [2], the concentration for an effect of 90% (IC90) is greater than 50 µM. The compound further displayed an IC90 under setting [3] greater than 100 µM.
